How the values were obtained:
Bcl-2-like protein 1 = Bcl-2-like protein 1 (Homo sapiens, UniProt Q07817); assay: Inhibition of human Bcl-xL expressed in Escherichia coli BL21(DE3) T1R cells preincubated under shaking condition for 1 min and measured after 3 hrs by TR-FRET assay
RS4-11 = assay: Cytotoxicity against human RS4-11 cells assessed as reduction in cell viability by CellTiter-Glo assay; assay type: functional, cell-based
MOLT-4 = assay: Cytotoxicity against human MOLT-4 cells assessed as reduction in cell viability by CellTiter-Glo assay; assay type: functional, cell-based
[1] = target: Apoptosis regulator Bcl-2 (Homo sapiens, UniProt P10415); assay: Inhibition of human Bcl-2 expressed in Escherichia coli BL21(DE3) T1R cells preincubated under shaking condition for 1 min and measured after 3 hrs by TR-FRET assay
Apoptosis regulator Bcl-2, sequence (P10415 whole entry): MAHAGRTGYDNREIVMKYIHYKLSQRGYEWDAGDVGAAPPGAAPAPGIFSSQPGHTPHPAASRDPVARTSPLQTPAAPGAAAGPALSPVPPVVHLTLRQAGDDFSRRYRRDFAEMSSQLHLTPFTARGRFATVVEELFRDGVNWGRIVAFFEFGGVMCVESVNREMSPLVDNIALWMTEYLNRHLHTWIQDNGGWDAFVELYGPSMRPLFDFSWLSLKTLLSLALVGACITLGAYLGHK

Bcl-2-like protein 1, sequence (Q07817 whole entry): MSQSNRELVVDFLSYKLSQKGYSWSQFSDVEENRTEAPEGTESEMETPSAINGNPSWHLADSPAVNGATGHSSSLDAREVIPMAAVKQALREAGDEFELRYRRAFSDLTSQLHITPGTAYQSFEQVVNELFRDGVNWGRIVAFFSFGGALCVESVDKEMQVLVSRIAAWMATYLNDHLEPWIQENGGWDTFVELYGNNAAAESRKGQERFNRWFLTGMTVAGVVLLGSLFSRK

SMILES | Ki (Bcl-2-like protein 1) | EC50 (RS4-11) | EC50 (MOLT-4) | Ki [1]
COC1(CNc2ccc(S(=O)(=O)NC(=O)c3ccc(N4CCN5CC6=C(c7ccc(Cl)cc7)CC(C)(C)C[C@H]6OCCCOC[C@@H]5C4)cc3N3CCCOc4nc5[nH]ccc5cc43)cc2[N+](=O)[O-])CCOCC1 | 40.3 nM | 4.38 nM | > 10000 nM | 2.09 nM
COCC1(F)CC(CNc2ccc(S(=O)(=O)NC(=O)c3ccc(N4CCN5CC6=C(c7ccc(Cl)cc7)CC(C)(C)C[C@H]6OCCCOC[C@@H]5C4)cc3N3CCCOc4nc5[nH]ccc5cc43)cc2[N+](=O)[O-])C1 (stereo partly drawn) | 25.8 nM | 10.9 nM | > 10000 nM | 0.28 nM
CC1(C)CC(c2ccc(Cl)cc2)=C2CN3CCN(c4ccc(C(=O)NS(=O)(=O)c5ccc(NC[C@H]6CC[C@](C)(O)CO6)c([N+](=O)[O-])c5)c(N5CCCOc6nc7[nH]ccc7cc65)c4)C[C@H]3COCCCO[C@@H]2C1 | 9.3 nM | 0.651 nM | 1220 nM | 0.049 nM
CC1(C)CC(c2ccc(Cl)cc2)=C2CN3CCN(c4ccc(C(=O)NS(=O)(=O)c5ccc(NC[C@H]6CC[C@H](O)CO6)c([N+](=O)[O-])c5)c(N5CCCOc6nc7[nH]ccc7cc65)c4)C[C@H]3COCCCO[C@@H]2C1 |  | 0.966 nM | 823 nM | 
CC1(C)CC(c2ccc(Cl)cc2)=C2CN3CCN(c4ccc(C(=O)NS(=O)(=O)c5ccc(NC[C@H]6COCCO6)c([N+](=O)[O-])c5)c(N5CCCOc6nc7[nH]ccc7cc65)c4)C[C@H]3COCCCO[C@@H]2C1 | 5.76 nM | 1.36 nM | 1410 nM | 0.034 nM
CC1(C)CC(c2ccc(Cl)cc2)=C2CN3CCN(c4ccc(C(=O)NS(=O)(=O)c5ccc(NCC6(O)CCOCC6)c([N+](=O)[O-])c5)c(N5CCCOc6nc7[nH]ccc7cc65)c4)C[C@H]3COCCCO[C@@H]2C1 | 8.31 nM | 1.43 nM | 426 nM | 0.223 nM
CC1(C)CC(c2ccc(Cl)cc2)=C2CN3CCN(c4ccc(C(=O)NS(=O)(=O)c5ccc(NC[C@H]6CC[C@@](C)(O)CC6)c([N+](=O)[O-])c5)c(N5CCCOc6nc7[nH]ccc7cc65)c4)C[C@H]3COCCCO[C@@H]2C1 | 11.1 nM | 1.47 nM | 117 nM | 0.061 nM
CO[C@H]1C[C@H](Nc2ccc(S(=O)(=O)NC(=O)c3ccc(N4CCN5CC6=C(c7ccc(Cl)cc7)CC(C)(C)C[C@H]6OCCCOC[C@@H]5C4)cc3N3CCCOc4nc5[nH]ccc5cc43)cc2[N+](=O)[O-])C1 | 39 nM | 4.1 nM | > 10000 nM | 2.58 nM
CC1(C)CC(c2ccc(Cl)cc2)=C2CN3CCN(c4ccc(C(=O)NS(=O)(=O)c5ccc(NC[C@H]6CC[C@](C)(O)CC6)c(Cl)c5)c(N5CCCOc6nc7[nH]ccc7cc65)c4)C[C@H]3COCCCO[C@@H]2C1 | 29.7 nM | 17.7 nM | > 10000 nM | 0.085 nM
CO[C@H]1CC[C@H](CNc2ccc(S(=O)(=O)NC(=O)c3ccc(N4CCN5CC6=C(c7ccc(Cl)cc7)CC(C)(C)C[C@H]6OCCCOC[C@@H]5C4)cc3N3CCCOc4nc5[nH]ccc5cc43)cc2[N+](=O)[O-])OC1 |  |  | 1700 nM | 
CC1(C)CC(c2ccc(Cl)cc2)=C2CN3CCN(c4ccc(C(=O)NS(=O)(=O)c5cnc(OCC6(F)CCOCC6)c(Cl)c5)c(N5CCCOc6nc7[nH]ccc7cc65)c4)C[C@H]3COCCCO[C@@H]2C1 | > 661 nM | 5.46 nM | > 10000 nM | 
